{"source": "patent US6093702A", "about": "“Mixtures of dideoxy-nucleosides and hydroxycarbamide for inhibiting retroviral spread” (The United States of America as represented by the …, priority 1995, dated 2000)", "key": {"HIV-1 virus strain IIIB": {"test_system": "HIV-1 virus strain IIIB", "assay": "microbe, parasite or virus in culture", "conditions": "for inhibition at 5 µM: read-out: inhibition of viral replication; for effect on viral replication (in words): non-activated CD4+ lymphocytes, HC 0.05 or 0.15 mM, ddI or AZT 5 μM; for p24-HIV production in culture supernatant: day 15, infected control 86215", "description": "(§1) Non-activated CD4^+ cells were infected, then treated for 7 days by HC, ddI or the combination of the two, then activated by PHA and IL-2 (PHA-IL-2).\n(§2) The CD4^+ lymphocytes were purified from PBMC with immunomagnetic beads (Dynabeads* M450). These cells were infected with the HIV-1 virus strain IIIB at a multiplicity of infection of 5 000 tissue culture infectious dose (TCID) per 10^6 cells (241 pg/ml p24 antigen equivalent of virus). After 2 hours of virus-cell contact, the cells were washed twice and placed in the culture medium RPMI 1640 (supplemented with 10% fetal calf serum (FCS), 2 mM glutamine, penicillin 100 IU/ml and Streptomycin 100 μg/ml) at a density of 1.3×10^6 cells/ml. ddI was immediately added at a concentration of 5 μM and HC at concentrations of 0.05 mM and […]. The drugs and culture medium were partially renewed (50%) on day 4, maintaining the same concentration of each. On day 7, in order to remove the drugs, the cells were washed twice and put back in culture in the presence of PHA at a concentration of 1 μg/ml and recombinant IL-2 at a concentration of 20 U/ml. This culture was maintained until day 25, with partial renewal (50%) of the medium twice a week. The number of viable cells was quantified by a tetrazolium-based colorimetric 3-(4,5-dimethylthiazol-2-yl)-2,5-diphenyltetrazolium bromide (MTT) method (Pauwels, R. et al J. Virol. Methods, 20, 309-321, (1988)), and activity is expressed as a percentage of the signal in the drug-free and virus-free control. Viral replication was quantified by measuring the HIV-1 p24 antigen by ELISA using the Dupont de Nemours kit.\nIn FIG. 2, there is shown a study of the activity of the combination of AZT and HC on non-activated CD4^+ lymphocytes infected with the HIV virus. The CD4^+ lymphocytes were purified from PBMC with immunomagnetic beads (Dynabeads* M450). These cells were infected with the HIV-1 virus strain IIIB at a multiplicity of infection of 5 000 tissue culture infectious dose (TCID) per 10^6 cells (241 pg/ml p24 antigen equivalent of virus). After 2 hours of virus-cell contact, the cells were washed twice and placed in the culture medium RPMI 1640 (supplemented with 10% FCS, 2 mM glutamine, penicillin 100 IU/ml and streptomycin 100 μg/ml) at a density of 1.3×10^6 cells/ml. AZT was immediately added at a concentration of 5 μM and HC at a concentration of 0.05 mM and 0.15 mM. The drugs and culture medium were partially renewed (50%) on day 4, maintaining the same concentration of each. On day 7, in order to remove the drugs, the cells were washed twice and put back in culture in the presence of PHA at a concentration of 1 μg/ml and recombinant IL-2 at a concentration of 20 U/ml. This culture was maintained until day 25, with partial renewal (50%) of the medium twice a week. The number of viable cells was quantified by a tetrazolium-based colorimetric 3-(4,5-dimethylthiazol-2-yl)-2,5-diphenyltetrazolium bromide (MTT) method (Pauwels, R. et al J. Virol. Methds, 20,309-321, (1988)), and activity is expressed as a percentage of the signal in the drug-free and virus-free control. Viral replication was quantified by measuring the HIV-1 p24 antigen by ELISA using the Dupont de Nemours kit."}, "HIV-1 strain IIIB": {"test_system": "HIV-1 strain IIIB", "assay": "microbe, parasite or virus in culture", "conditions": "for p24 production: day 6", "description": "(§3) The PBMC were purified from peripheral blood by discontinous Ficoll density gradient centrifugation. The cells were grown at a density of 1.3×10^6 cells/ml in RPMI 1640 medium supplemented with 10% FCS, 2 mM glutamine, penicillin 100 IU/ml and streptomycin 100 μg/ml, in the presence of PHA at a concentration of 1 μg/ml and recombinant IL-2 at 20 U/ml for 72 hours, then infected by HIV-1 strain IIIB at a multiplicity of 5000 TCID for 10^6 cells (241 pg/ml p24 antigen equivalent of virus). In FIG. 3, the first time point represent viral infection of the cells. After 2 hours of virus-cell contact, the cells were washed twice and placed in the culture medium containing IL-2 but without PHA in the presence of ddI at a concentration of 10 μM and of HC at a concentration of 0.15 mM. These cultures were maintained for 20 days, with partial renewal of the medium and of the two drugs twice a week maintaining the initial concentration. At day 6 and day 14 fresh uninfected donor PBMC were added (5×10^5 /ml) to replenish aged cultures (Nature, 361:1993, 650-654). The number of viable cells were quantified by a tetrazolium-based colorimetric 3-(4,5-dimethylthiazol-2-yl)-2,5-diphenyltetrazolium bromide (MTT) method (Pauwels, R. et al J. Virol. Methods, 20:309-321, (1988)), and activity is expressed as a percentage of the signal in the drug-free and virus-free control. Viral replication was quantified by measuring the HIV-1 p24 antigen by ELISA using the Dupont de Nemours kit."}, "[1]": {"test_system": "PBMC preactivated with PHA and IL-2", "assay": "Inhibitory concentration 50% in preactivated PBMC by MTT test", "type": "cell-based", "conditions": "72 h, read-out: IC50 (inhibitory concentration 50%), after 3 days", "description": "as §3, with “At day 6 and day 14 fresh uninfected donor PBMC were added (5×10^5 /ml) to replenish aged cultures (Nature, 361:1993, 650-654).” left out"}, "in vitro": {"assay": "in vitro", "conditions": "human, cd4+ lymphocytes", "description": "as §1\nas §2, with “This culture was maintained until day 25, with partial renewal (50%) of the medium twice a week.” left out\n(§4) In FIG. 2, there is shown a study of the activity of the combination of AZT and HC on non-activated CD4^+ lymphocytes infected with the HIV virus. […] The number of viable cells was quantified by a tetrazolium-based colorimetric 3-(4,5-dimethylthiazol-2-yl)-2,5-diphenyltetrazolium bromide (MTT) method (Pauwels, R. et al J. Virol. Methds, 20,309-321, (1988)), and activity is expressed as a percentage of the signal in the drug-free and virus-free control. Viral replication was quantified by measuring the HIV-1 p24 antigen by ELISA using the Dupont de Nemours kit."}, "[2]": {"assay": "Cell viability of preactivated PBMC by Trypan Blue exclusion", "type": "cell-based", "conditions": "human, HC 0.15 mM, 2% Trypan Blue exclusion, read-out: cellular viability"}, "[3]": {"test_system": "dNTP pools in PHA-stimulated PBLs", "conditions": "HC 1 mM, cited from earlier work"}, "[4]": {"assay": "Cytotoxicity in non-activated lymphocytes (PBLs) pretreated 24 h and then activated 48 h", "type": "cell-based", "conditions": "human, HC 1 mM, 24 h pretreatment, then PHA and IL-2 for 48 h in presence of HC, read-out: PBLs dying due to the drug's toxicity", "description": "Under such conditions, greater than 70% of the PBLs die due to the drug's toxicity."}, "[5]": {"test_system": "non-activated CD4+ lymphocytes", "assay": "in vitro", "conditions": "after PHA-IL-2 stimulation", "description": "as §1\nas §2, with “This culture was maintained until day 25, with partial renewal (50%) of the medium twice a week.” left out\nas §4"}, "[6]": {"conditions": "Human immunodeficiency virus 1, IIIB, Lymphocyte"}, "[7]": {"conditions": "single drug 5 μM, infected control 86215 pg p24/ml"}, "[8]": {"conditions": "Human immunodeficiency virus 1, IIIB, PBMC, 144 h, read-out: inhibition of viral replication"}}, "note": "“Also recorded” adds a separate entry of the source. Like-named read-outs stand apart in the source and are kept apart here."}
{"compound": "Cc1cn([C@H]2C[C@H](N=[N+]=[N-])[C@@H](CO)O2)c(=O)[nH]c1=O", "note": "[AZT, 3'-azido-2',3'-dideoxythymidine]", "values": [{"measurement": "log reduction at 5 µM", "setting": "HIV-1 virus strain IIIB; Human immunodeficiency virus 1, IIIB, Lymphocyte, read-out: antiviral activity (log reduction)", "result": "< 1"}, {"measurement": "inhibition at 5 µM", "setting": "HIV-1 virus strain IIIB; [6]", "result": 88.4, "unit": "%"}, {"measurement": "effect on viral replication (in words)", "setting": "HIV-1 virus strain IIIB", "result": "only slight antiviral activity; also recorded: only a slight effect on viral replication"}, {"measurement": "p24 production", "setting": "HIV-1 virus strain IIIB; [7]", "result": 10300, "unit": "pg p24/ml"}]}
{"compound": "NC(=O)NO", "note": "[HC, hydroxycarbamide]", "values": [{"measurement": "p24-HIV production in culture supernatant", "setting": "HIV-1 virus strain IIIB; HC 0.05 mM", "result": "75460 pg of p24/ml"}, {"measurement": "p24-HIV production in culture supernatant", "setting": "HIV-1 virus strain IIIB; HC 0.15 mM", "result": "82005 pg of p24/ml"}, {"measurement": "effect on viral replication (in words)", "setting": "HIV-1 virus strain IIIB", "result": "incapable of preventing the production of infectious virions"}, {"measurement": "p24 production", "setting": "HIV-1 strain IIIB; HC alone 0.15 mM", "result": 12500, "unit": "pg p24/ml"}, {"measurement": "inhibition at 150 µM", "setting": "HIV-1 strain IIIB; [8]", "result": 82.6, "unit": "%"}, {"measurement": "IC50", "setting": "[1]", "result": 150, "unit": "µM"}, {"measurement": "cytotoxicity at 50 µM", "setting": "in vitro", "result": "> 50", "unit": "%"}, {"measurement": "cytotoxicity at 150 µM", "setting": "in vitro", "result": "> 50", "unit": "%"}, {"measurement": "viability at 72 h, 150 µM", "setting": "[2]", "result": "> 90", "unit": "%"}, {"measurement": "effect on dNTP levels and DNA synthesis rate (in words)", "setting": "[3]; listed as hydroxyurea", "result": "decreases dNTP levels and the DNA synthesis rate to levels comparable to quiescent PBLs; also recorded: decreases the dNTP levels and the DNA synthesis rate to levels comparable to quiescent PBLs"}, {"measurement": "effect on dNTP levels and DNA synthesis rate (in words)", "setting": "[3]", "result": "partially reduces the various dNTP pools studied"}, {"measurement": "cytotoxicity at 72 h, 1000 µM", "setting": "[4]", "result": "> 70", "unit": "%"}]}
{"compound": "OC[C@@H]1CC[C@H](n2cnc3c(O)ncnc32)O1", "note": "[ddI, 2',3'-dideoxy-inosine]", "values": [{"measurement": "inhibition at 5 µM", "setting": "HIV-1 virus strain IIIB; [6]", "result": 99.1, "unit": "%"}, {"measurement": "p24 production", "setting": "HIV-1 virus strain IIIB; ddI 5 μM alone, day 25", "result": 101080, "unit": "pg p24/ml"}, {"measurement": "effect on viral replication (in words)", "setting": "HIV-1 virus strain IIIB", "result": "reached substantially the same level of p24 production as the infected control; also recorded: only temporarily and partially inhibited"}, {"measurement": "p24 production", "setting": "HIV-1 virus strain IIIB; [7]", "result": 766, "unit": "pg p24/ml"}, {"measurement": "inhibition at 10 µM", "setting": "HIV-1 strain IIIB; [8]", "result": 97.1, "unit": "%"}, {"measurement": "p24 production", "setting": "HIV-1 strain IIIB; ddI alone 10 μM", "result": 2071, "unit": "pg p24/ml"}, {"measurement": "proliferative cellular response / cytopathic effect (in words)", "setting": "[5]", "result": "cytopathic effect was observed later"}]}
